pKd: −log10 of the molar value.
Assays:
MCF-7 tumour = assay: In-vivo activity in a breast cancer model: nude mice grafted with MCF-7 cells, after onset of docetaxel resistance; conditions: docetaxel 9 mg/kg intravenously, 5 injections, mice bearing MCF-7 tumours
Experimental: Determination of in-vivo activity: In-vivo activity is tested in a breast cancer model: 7-week old nude female mice (Charles River Laboratories, n=15) were subcutaneously grafted with 5×10^6 MCF-7 cells 1 day after subcutaneous implantation of 0.72 mg of granules releasing 17β-estradiol (Innovative Research of America) for 60 days.
The mice are randomised, and treatment is initiated when the tumours reach a size of approximately 150 mm^3. The tumour volume (length×width×height×0.52) is measured at least twice a week and the therapeutic response is defined using solid tumour response criteria (RECIST).
Mice bearing MCF-7 tumours are injected intravenously with docetaxel, 9 mg/kg twice a week for a total of 5 injections.
The percentage of the regression values is calculated using the following formula:
where T=the tumour volume in the treated group, ΔT=the tumour volume in the treated group on the day of the study minus the tumour volume in the treated group on the initial day of administration, and Tinitial=the tumour volume in the treated group on the initial day of the administration The disease is considered to be progressing when the tumour size increases by >20%. Partial regression (PR) is defined as a reduction in tumour size >30%. […]

IGF-IR = IGF-IR (Homo sapiens, UniProt P08069); conditions: read-out: Kd of binding to IGF-IR; cited from earlier work
Sequence of IGF-IR (P08069 31-736 limits assumed): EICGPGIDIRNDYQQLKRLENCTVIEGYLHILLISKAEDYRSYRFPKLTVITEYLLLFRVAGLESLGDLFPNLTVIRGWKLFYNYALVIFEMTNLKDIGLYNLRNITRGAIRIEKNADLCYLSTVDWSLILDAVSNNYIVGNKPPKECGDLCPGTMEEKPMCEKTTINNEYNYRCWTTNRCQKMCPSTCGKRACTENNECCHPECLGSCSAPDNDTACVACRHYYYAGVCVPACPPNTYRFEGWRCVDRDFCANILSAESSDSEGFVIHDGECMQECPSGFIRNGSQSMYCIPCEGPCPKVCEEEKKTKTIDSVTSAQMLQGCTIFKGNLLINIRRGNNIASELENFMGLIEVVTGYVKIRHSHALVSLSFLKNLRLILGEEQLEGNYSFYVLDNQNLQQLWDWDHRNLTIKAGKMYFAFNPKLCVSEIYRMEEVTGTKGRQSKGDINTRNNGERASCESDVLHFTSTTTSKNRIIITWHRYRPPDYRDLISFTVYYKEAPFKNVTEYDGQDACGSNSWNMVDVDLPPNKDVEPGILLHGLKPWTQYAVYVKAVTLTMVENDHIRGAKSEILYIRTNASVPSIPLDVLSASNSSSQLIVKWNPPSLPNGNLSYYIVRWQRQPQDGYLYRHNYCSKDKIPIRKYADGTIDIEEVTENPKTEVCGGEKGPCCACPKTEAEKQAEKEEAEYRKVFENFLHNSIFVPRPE
Sequence of IGF-IR (P08069 741-1367 partner limits assumed): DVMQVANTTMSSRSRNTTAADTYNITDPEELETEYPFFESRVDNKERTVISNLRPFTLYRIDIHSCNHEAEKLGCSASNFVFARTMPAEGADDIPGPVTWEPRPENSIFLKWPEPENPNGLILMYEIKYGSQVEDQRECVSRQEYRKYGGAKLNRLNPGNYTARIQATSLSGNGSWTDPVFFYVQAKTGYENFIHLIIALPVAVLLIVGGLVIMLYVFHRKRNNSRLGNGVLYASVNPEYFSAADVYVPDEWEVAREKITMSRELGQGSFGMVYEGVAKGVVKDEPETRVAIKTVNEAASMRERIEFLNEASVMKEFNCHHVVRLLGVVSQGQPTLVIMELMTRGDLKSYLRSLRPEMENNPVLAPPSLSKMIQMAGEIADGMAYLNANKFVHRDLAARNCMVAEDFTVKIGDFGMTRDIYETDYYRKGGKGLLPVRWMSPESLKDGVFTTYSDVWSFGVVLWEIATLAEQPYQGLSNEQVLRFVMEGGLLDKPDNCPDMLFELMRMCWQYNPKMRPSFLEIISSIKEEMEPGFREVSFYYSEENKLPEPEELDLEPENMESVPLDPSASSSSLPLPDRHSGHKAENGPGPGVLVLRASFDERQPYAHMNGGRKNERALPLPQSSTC

CC(=O)O[C@@]12CO[C@@H]1C[C@H](O)[C@@]1(C)C(=O)[C@H](O)C3=C(C)[C@@H](OC(=O)[C@H](O)[C@@H](NC(=O)OC(C)(C)C)c4ccccc4)C[C@@](O)([C@@H](OC(=O)c4ccccc4)[C@H]21)C3(C)C [docetaxel]
time after which the tumours became resistant to docetaxel and relapsed (MCF-7 tumour): 70 days

IGF2: natural ligand bound by IGF-IR
pKd (IGF-IR): ~9.00

From patent publication US20220218838A1, “ADC FOR A TREATMENT CONCOMITANT WITH OR SUBSEQUENT TO DOCETAXEL” (PIERRE FABRE MEDICAMENT, priority 2019, published 2022)
